{"source": "patent US10398672B2", "about": "“Methods and compositions for targeting cancer stem cells” (Whitehead Institute for Biomedical Research, priority 2014, dated 2019)", "tested_on": "NAMEC cells transformed with Ras", "conditions": "mouse, in vivo", "data": [{"substance": "cholera toxin", "values": [{"measurement": "loss of tumor-initiating ability compared to untreated NAMEC cells", "result": 100, "unit": "fold"}]}]}
